Patent publication US10640534B2 (Agios Pharmaceuticals, Inc., priority 2012, dated 2020)

These molecules were tested on U87MG cells (assay: Cellular assay, inhibition of 2-HG production in U87MG cells). Conditions: Homo sapiens, U-87 MG, 48 h.
Format: cell-based
Outline: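 HT1080 or U87MG cells (U87MG kept with 500 ug/mL G418) seeded at 5000 cells/well and treated with compound at 0.2% final DMSO. Incubated 48 h at 37 °C. 2-HG inhibition determined by LC-MS. Viability read by CellTiter-Glo luminescence at 72 h post-dose.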

IC50	SMILES
< 100 nM	N#Cc1ccnc(N2C(=O)[C@@H](O)C[C@H]2C(=O)N(c2cc(F)cc(F)c2)[C@H](C(=O)NC2CCC(F)(F)CC2)c2ccccc2Cl)c1 [Compound 174, (2S,4S)—N—((S)-1-(2-Chlorophenyl)-2-((4,4-difluorocyclohexyl)amino)-2-oxoethyl)-1-(4-cyanopyridin-2-yl)-N-(3,5-difluorophenyl)-4-hydroxy-5-oxopyrrolidine-2-carboxamide]
100 to 500 nM	O=C(NC1CC(F)(F)C1)[C@H](c1ccccc1Cl)N(C(=O)[C@@H]1CCC(=O)N1c1cc(Cl)ccn1)c1cccc(F)c1 [Compound 33]
< 100 nM	O=C(NC1CCC(F)(F)CC1)[C@H](c1ccccc1Cl)N(C(=O)[C@@H]1CCC(=O)N1c1cscn1)c1cccc(F)c1 [Compound 74]
< 100 nM	N#Cc1ccnc(N2C(=O)CC[C@H]2C(=O)N(c2cccc(C3CC3)c2)[C@H](C(=O)NC2CC(F)(F)C2)c2ccccc2Cl)n1 [Compound 182, (S)—N—((S)-1-(2-Chlorophenyl)-2-((3,3-difluorocyclobutyl)amino)-2-oxoethyl)-1-(4-cyanopyrimidin-2-yl)-N-(3-cyclopropylphenyl)-5-oxopyrrolidine-2-carboxamide]
< 100 nM	N#Cc1ccnc(N2C(=O)CC[C@H]2C(=O)N(c2cc(F)cc(C3CC3)c2)[C@H](C(=O)NC2CC(F)(F)C2)c2ccccc2Cl)c1 [Compound 204, (S)—N—((S)-1-(2-Chlorophenyl)-2-((3,3-difluorocyclobutyl)amino)-2-oxoethyl)-1-(4-cyanopyridin-2-yl)-N-(3-cyclopropyl-5-fluorophenyl)-5-oxopyrrolidine-2-carboxamide]
< 100 nM	O=C(NC1CC(F)(F)C1)[C@H](c1ccccc1Cl)N(C(=O)[C@@H]1CCC(=O)N1c1ccc(F)cn1)c1cccc(F)c1 [Compound 29]
< 100 nM	O=C(NC1CC(F)(F)C1)[C@H](c1ccccc1Cl)N(C(=O)[C@@H]1CCC(=O)N1c1ncccn1)c1cc(F)cc(F)c1 [Compound 70, (S)—N—((S)-1-(2-Chlorophenyl)-2-((3,3-difluorocyclobutyl)amino)-2-oxoethyl)-N-(3,5-difluoro-phenyl)-5-oxo-1-(pyrimidin-2-yl)pyrrolidine-2-carboxamide]
< 100 nM	N#Cc1ccnc(N2C(=O)[C@@H](O)C[C@H]2C(=O)N(c2cccc(F)c2)[C@H](C(=O)NC2CCC(F)(F)CC2)c2ccccc2Cl)n1 [Compound 189, (2S,4S)—N—((S)-1-(2-Chlorophenyl)-2-((4,4-difluorocyclohexyl)amino)-2-oxoethyl)-1-(4-cyanopyrimidin-2-yl)-N-(3-fluorophenyl)-4-hydroxy-5-oxopyrrolidine-2-carboxamide]
< 100 nM	CS(=O)(=O)c1cccc(N(C(=O)[C@@H]2CCC(=O)N2c2cc(C#N)ccn2)C(C(=O)NC2CCC(F)(F)CC2)c2ccccc2Cl)c1 (stereo partly drawn) [Compound 95, (2S)—N-(1-(2-Chlorophenyl)-2-((4,4-difluorocyclohexyl)amino)-2-oxoethyl)-1-(4-cyanopyridin-2-yl)-N-(3-(methylsulfonyl)phenyl)-5-oxopyrrolidine-2-carboxamide]
< 100 nM	N#Cc1ccnc(N2C(=O)CC[C@H]2C(=O)N(c2cccc3[nH]ncc23)C(C(=O)NC2CC(F)(F)C2)c2ccccc2Cl)c1 (stereo partly drawn) [Compound 152, (2S)—N-(1-(2-Chlorophenyl)-2-((3,3-difluorocyclobutyl)amino)-2-oxoethyl)-1-(4-cyanopyridin-2-yl)-N-(1H-indazol-4-yl)-5-oxopyrrolidine-2-carboxamide]
< 100 nM	N#Cc1ccnc(N2C(=O)CC[C@H]2C(=O)N(c2ccccc2F)[C@H](C(=O)NC2CC(F)(F)C2)c2ccccc2Cl)c1 [Compound 187, (S)—N—((S)-1-(2-Chlorophenyl)-2-((3,3-difluorocyclobutyl)amino)-2-oxoethyl)-1-(4-cyanopyridin-2-yl)-N-(2-fluorophenyl)-5-oxopyrrolidine-2-carboxamide]
